We go through twelve molecules from patent US8846571B2, “Herbicidal compositions containing benzoylpyrazole compounds” (priority 2008, dated 2014).

Like-named read-outs stand apart in the source and are kept apart here.

The nature of assay [1]: Foliar treatment pot test (Example 1), plant name misprinted as 'days after treatment'. The class given is in vivo. Particulars: 4.0-5.0 leaf stage. The source says:
(§1) When the herbicidal activity in a case where two active ingredients are combined, is larger than the simple sum of the respective herbicidal activities of the two active ingredients (the expected activity), it is called a synergistic effect. The activity expected by the combination of two active ingredients can be calculated as follows (Colby S. R., “Weed”, vol. 15, p. 20-22, 1967). E=α+β−(α×β÷100) where
(§2) Upland field soil was put into a 1/1,000,000 hectare pot, and seeds of various plants were sown. When the respective plants reached predetermined leaf stage, herbicidal compositions in predetermined amounts were diluted with water in an amount corresponding to 300 L/ha and applied for foliar treatment by a small sprayer.
(§3) Further, in accordance with the above Colby's formula, the growth inhibition rate (calculated value) was calculated. In Tables, with respect to the compound Q, Compound Nos. in Table 1 are described, and with respect to other herbicidal compounds, common names are described.

The test system of assay [2] is prickly sida. The assay can be described thus: Foliar treatment pot test (Example 1), visual growth inhibition of prickly sida. The class given is in vivo, prickly sida (Side spinosa L.). Particulars: read-out: Growth inhibition rate (%) Measured value.
From the text: as §1, §2, §3

Assay [3] deals with crabgrass. The experiment in a line: Foliar treatment pot test (Example 1), visual growth inhibition of crabgrass. Type of assay: in vivo.
From the text: as §1, §2, §3

Assay [4] deals with velvetleaf. The assay can be described thus: Foliar treatment pot test (Example 1), visual growth inhibition of velvetleaf. The class given is in vivo, velvetleaf (Abutilon theophrasti MEDIC.).
From the text: as §1, §2, §3

The subject of assay [5] is various plants. The assay can be described thus: Foliar treatment pot test (Example 1) on various plants. The class given is in vivo. Particulars: Setaria, 336 h, fiant foxtail, 4.0-5.0 leaf stage, 14 days after treatment, read-out: Growth inhibition rate (%) of fiant foxtail, Measured value.
From the text: as §1, §2, §3

Where [6] appears, read: 504 h, 21 days after treatment, read-out: Growth inhibition rate (%) Measured value.

As a reminder, the inhibition is the percentage by which the read-out fell short of the control. On to `CCNc1nc(Cl)nc(NC(C)C)n1` [Atrazine, atrazine], for which the inhibition at 125 g/ha in assay [1] (setting [6]) worked out at 0%; in assay [2] (504 h, prickly sida 3.0-3.3 leaf stage, 21 days after treatment, 125 g/ha), 45%. Further, the inhibition at 63 g/ha in assay [2] (504 h, prickly sida 3.0-3.3 leaf stage, 21 days after treatment, 63 g/ha) was 30%.
Consider `COc1c(Cl)ccc(Cl)c1C(=O)O` [Dicamba, dicamba], for which, in assay [1] (336 h, 14 days after treatment, 200 g/ha, read-out: Growth inhibition rate (%) Measured value), the inhibition at 200 g/ha was 0%.
For `N.O=C(O)CNCP(=O)(O)O` [Glyphosate-ammonium, glyphosate-ammonium], in assay [3] (crabgrass 5.0-5.5 leaf stage, 21 days after treatment, 100 g/ha), the “Growth inhibition rate (%) Measured value” is reported as 10%.
As to `COC(=O)c1c(Cl)nn(C)c1S(=O)(=O)NC(=O)Nc1nc(OC)cc(OC)n1` [Halofulfuron-methyl], the “Growth inhibition rate (%) of crabgrass, Measured value” in assay [3] (5.0-5.5 leaf stage, 14 days after treatment, 20 g/ha) is on record as 0%.
Consider `CS(=O)(=O)c1ccc(C(=O)C2C(=O)CCCC2=O)c([N+](=O)[O-])c1` [Mesotrione], for which the inhibition at 15 g/ha in assay [1] (504 h, 21 days after treatment, 15 g/ha, read-out: Growth inhibition rate (%) of days after treatment, Measured value) was determined as 5%.
In the case of `CCOC(=O)OC(C)Oc1c(C(=O)c2ccc(S(C)(=O)=O)c(OCCOC)c2C)cnn1C` (stereo not drawn) [NO. 2], the “Growth inhibition rate (%) Measured value” in assay [4] (velvetleaf 4.0-4.3 leaf stage, 22 days after treatment, 3.75 g/ha) turned out to be 0%.
With `CCn1ncc(C(=O)c2ccc(S(C)(=O)=O)c(OCCOC)c2C)c1OC(C)OC(=O)OC` (stereo not drawn) [NO. 4, 1-(1-ethyl-4-(3-(2-methoxyethoxy)-2-methyl-4-(methylsulfonyl)benzoyl)-1H-pyrazol-5-yloxy)ethyl methyl carbonate], the inhibition at 7 g/ha in assay [5] (7 g/ha) came out at 75%; in assay [4] (Abutilon theophrasti, foliar, 552 h, 3.0-3.5 leaf stage, 23 days after treatment, 7 g/ha, read-out: Growth inhibition rate (%) of velvetleaf, Measured value), 75%; in assay [1] (504 h, 21 days after treatment, 7 g/ha, read-out: Growth inhibition rate (%) of days after treatment, Measured value), 60%. The “Growth inhibition rate (%) of velvetleaf, Measured value” in assay [4] (3.0-4.0 leaf stage, 14 days after treatment, 15 g/ha) came to 80%. The inhibition at 15 g/ha in assay [4] (Abutilon theophrasti, foliar, 336 h, 3.0-4.0 leaf stage, 14 days after treatment, 15 g/ha, read-out: Growth inhibition rate (%) of velvetleaf, Measured value) was 73%; in assay [4] (Abutilon theophrasti, foliar, 504 h, velvetleaf 3.8-4.4 leaf stage, 21 days after treatment, 15 g/ha, read-out: Growth inhibition rate (%) Measured value) it was 75%; in assay [4] (Abutilon theophrasti, foliar, 528 h, velvetleaf 3.3-3.8 leaf stage, 22 days after treatment, 15 g/ha, read-out: Growth inhibition rate (%) Measured value), 89%; in assay [4] (Abutilon theophrasti, foliar, 552 h, 3.0 to 3.5 leaf stage, 23 days after treatment, 15 g/ha, read-out: Growth inhibition rate (%) of velvetleaf, Measured value), 93%; in assay [4] (Abutilon theophrasti, foliar, 576 h, 3.2-4.1 leaf stage, 24 days after treatment, 15 g/ha, read-out: Growth inhibition rate (%) of velvetleaf, Measured value) it was 93%; in assay [3] (Digitaria sanguinalis, foliar, 552 h, 4.0-5.1 leaf stage, 23 days after treatment, 15 g/ha, read-out: Growth inhibition rate (%) of crabgrass, Measured value) it was 85%. Moreover, the inhibition at 5 g/ha in assay [4] (Abutilon theophrasti, foliar, 504 h, velvetleaf 3.1-3.4 leaf stage, 21 days after treatment, 5 g/ha, read-out: Growth inhibition rate (%) Measured value) was 94%; in assay [3] (Digitaria sanguinalis, foliar, 336 h, crabgrass 3.5-4.3 leaf stage, 14 days after treatment, 5 g/ha, read-out: Growth inhibition rate (%) Measured value), 90%. In addition, the inhibition at […] in assay [1] (504 h, 21 days after treatment, 3.5 g/ha, read-out: Growth inhibition rate (%) of days after treatment, Measured value) was determined as 40%. In assay [2] (480 h, prickly sida 1.5-2.4 leaf stage, 20 days after treatment, 75 g/ha), the inhibition at 75 g/ha was 55%.
`CCOCCN(C(=O)CCl)C(=C(C)C)c1ccccc1` [Pethoxamid, pethoxamid, reference compound]: the “Growth inhibition rate (%) Measured value” in assay [4] (velvetleat 3.3-4.2 leaf stage, 13 days after treatment, 200 g/ha) worked out at 0%; in assay [3] (crabgrass 4.4-5.0 leaf stage, 13 days after treatment, 200 g/ha) it was 0%.
As to `CCCCCCCCSC(=O)Oc1cc(Cl)nnc1-c1ccccc1` [Pyridate, pyridate, reference compound], the inhibition at 100 g/ha is 0% in assay [5] (100 g/ha) and 0% in assay [1] (504 h, 21 days after treatment, 100 g/ha, read-out: Growth inhibition rate (%) of days after treatment, Measured value).
On to `CCc1cccc(C)c1N(C(=O)CCl)[C@@H](C)COC` [S-Metolachlor, S-metolachlor], for which the “Growth inhibition rate (%) Measured value” in assay [4] (velvetleaf 3.0-3.5 leaf stage, 21 days after treatment, 300 g/ha) came to 0%; in assay [3] (crabgrass 4.0-5.1 leaf stage, 21 days after treatment, 300 g/ha) it was 0%; in assay [3] (crabgrass 5.0-6.0 leaf stage, 14 days after treatment, 800 g/ha), 0%. In addition, the “Growth inhibition rate (%) of crabgrass, Measured value” in assay [3] (4.0-5.0 leaf stage, 14 days after treatment, 150 g/ha) came out at 0%.
Take `CCNc1nc(Cl)nc(NC(C)(C)C)n1` [Terbuthylazine, terbuthylazine]: in assay [1] (192 h, 8 days after treatment, 250 g/ha, read-out: Growth inhibition rate (%) Measured value), the inhibition at 250 g/ha came out at 10%. In addition, the inhibition at 125 g/ha in assay [1] (setting [6]) stood at 0%.
For the molecule `COC(=O)c1sccc1S(=O)(=O)NC(=O)Nc1nc(C)nc(OC)n1` [Thifensulfuron-methyl], in assay [1] (504 h, 21 days after treatment, 5 g/ha, read-out: Growth inhibition rate (%) of days after treatment, Measured value), the inhibition at 5 g/ha is 0%.
